Measurements published in PubChem BioAssay AID2060887 (Molecular Pharmacology Branch, DTP, NCI, 2025).
Blank lines part the entries; values can stand above or below the compound they belong to.

System: 782815-120-R-J1-PDC complex spheroid viability
Assay: Anticancer human tumor 782815-120-R-J1-PDC patient-derived colon adenocarcinoma cell line growth inhibition [RAS]
Conditions: for viability, T/C: stronger effect = lower value
In short: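 Multi-cell-type spheroids: tumor cells plus HUVEC endothelial cells and mesenchymal stem cells. RAS-pathway inhibitors were combined with targeted agents, each dosed in half-log steps down from clinical Cmax, or from 10 microM when Cmax was unknown.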
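Further: spheroids exposed to compounds for 7 days before reading.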
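Wherever viability, T/C is given: 100% = DMSO vehicle control viability.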

IC50 (compound alone, run of 07/09/2024): > 300 nM
SMILES: CCn1c(-c2cccnc2C(C)OC)c2c3cc(ccc31)N1CCOC(CC(NC(=O)C(C(C)C)N(C)C(=O)C3(F)CCN(C(=O)C#CC(C)(C)N(C)C)CC3)C(=O)N3CCCC(N3)C(=O)OCC(C)(C)C2)C1 (centres undefined)
viability, T/C (compound 0.000949 µM): 95.4% [middle of 8 runs]
viability, T/C (compound 0.003 µM): 100% [middle of 8 runs]
viability, T/C (compound 0.00949 µM): 95.8% [middle of 8 runs]
viability, T/C (compound 0.03 µM): 98.5% [middle of 8 runs]
viability, T/C (compound 0.0949 µM): 96.5% [middle of 8 runs]
viability, T/C (compound 0.3 µM): 89.1% [middle of 8 runs]

IC50 (curve of first compound, second compound 0.000949 µM): 29.3 nM
IC50 (curve of first compound, second compound 0.003 µM): 42.4 nM
IC50 (curve of first compound, second compound 0.00949 µM): 31.5 nM
IC50 (curve of first compound, second compound 0.03 µM): 38 nM
IC50 (curve of first compound, second compound 0.0949 µM): 50 nM
IC50 (curve of first compound, second compound 0.3 µM): 47.6 nM
SMILES: Nc1ccn(C2OC(CO)C(O)C2(F)F)c(=O)n1 (centres undefined) + CCn1c(-c2cccnc2C(C)OC)c2c3cc(ccc31)N1CCOC(CC(NC(=O)C(C(C)C)N(C)C(=O)C3(F)CCN(C(=O)C#CC(C)(C)N(C)C)CC3)C(=O)N3CCCC(N3)C(=O)OCC(C)(C)C2)C1
viability, T/C (second compound 0.000949 µM, first compound 0.00316 µM): 89.4%
viability, T/C (second compound 0.000949 µM, first compound 0.01 µM): 64.7%
viability, T/C (second compound 0.000949 µM, first compound 0.0316 µM): 50.6%
viability, T/C (second compound 0.000949 µM, first compound 0.1 µM): 37.2%
viability, T/C (second compound 0.000949 µM, first compound 0.316 µM): 23.5%
viability, T/C (second compound 0.000949 µM, first compound 1 µM): 23.5%
viability, T/C (second compound 0.003 µM, first compound 0.00316 µM): 95%
viability, T/C (second compound 0.003 µM, first compound 0.01 µM): 71.3%
viability, T/C (second compound 0.003 µM, first compound 0.0316 µM): 59.3%
viability, T/C (second compound 0.003 µM, first compound 0.1 µM): 34.6%
viability, T/C (second compound 0.003 µM, first compound 0.316 µM): 27.3%
viability, T/C (second compound 0.003 µM, first compound 1 µM): 24.5%
viability, T/C (second compound 0.00949 µM, first compound 0.00316 µM): 96.2%
viability, T/C (second compound 0.00949 µM, first compound 0.01 µM): 71.8%
viability, T/C (second compound 0.00949 µM, first compound 0.0316 µM): 50.8%
viability, T/C (second compound 0.00949 µM, first compound 0.1 µM): 34.7%
viability, T/C (second compound 0.00949 µM, first compound 0.316 µM): 29.1%
viability, T/C (second compound 0.00949 µM, first compound 1 µM): 25.7%
viability, T/C (second compound 0.03 µM, first compound 0.00316 µM): 85.4%
viability, T/C (second compound 0.03 µM, first compound 0.01 µM): 75.7%
viability, T/C (second compound 0.03 µM, first compound 0.0316 µM): 53.2%
viability, T/C (second compound 0.03 µM, first compound 0.1 µM): 33.6%
viability, T/C (second compound 0.03 µM, first compound 0.316 µM): 27.2%
viability, T/C (second compound 0.03 µM, first compound 1 µM): 25.7%
viability, T/C (second compound 0.0949 µM, first compound 0.00316 µM): 83.6%
viability, T/C (second compound 0.0949 µM, first compound 0.01 µM): 71.8%
viability, T/C (second compound 0.0949 µM, first compound 0.0316 µM): 57.9%
viability, T/C (second compound 0.0949 µM, first compound 0.1 µM): 38.7%
viability, T/C (second compound 0.0949 µM, first compound 0.316 µM): 28.1%
viability, T/C (second compound 0.0949 µM, first compound 1 µM): 20.1%
viability, T/C (second compound 0.3 µM, first compound 0.00316 µM): 85.3%
viability, T/C (second compound 0.3 µM, first compound 0.01 µM): 71.2%
viability, T/C (second compound 0.3 µM, first compound 0.0316 µM): 58.4%
viability, T/C (second compound 0.3 µM, first compound 0.1 µM): 38.5%
viability, T/C (second compound 0.3 µM, first compound 0.316 µM): 24.2%
viability, T/C (second compound 0.3 µM, first compound 1 µM): 22.1%
